{"source": "patent US5441982A", "about": "“Therapeutics for management of cocaine induced toxicity” (priority 1993, dated 1995)", "key": {"[1]": {"biological_target": "NMDA receptor", "assay": "Competition binding, [^3 H]CGP 39653, mouse cortical membranes", "conditions": "for Effect on binding of [^3 H]CGP 39653: 0.01 to 100 uM", "protocol": "(§1) Affinity of selected reference drugs for the NMDA receptor\n(§2) labeled with [^3 H]CGP 39653 and the PCP receptor\n(§3) labeled with [^3 H]MK-801, relatively to the effect of\n(§4) NOS inhibitors, in mouse cortical membranes.\n(§5) Competition binding assays were carried out using 14 nM [^3 H]CGP 39653 and 2 nM [^3 H]MK-801. L-NAME and NO-Arg at a concentration range of 0.01 to 100 uM, each, had no effect (N.E.) on the binding of the two tritium labeled ligands. Data represents the mean ±S.D. of three experiments."}, "[2]": {"biological_target": "PCP receptor", "assay": "Competition binding, [^3 H]MK-801, mouse cortical membranes", "conditions": "for [^3 H]MK-801 Ki / Ki: 2 nM [^3 H]MK-801, mouse cortical membranes, mean ± S.D. of three experiments, N.E. = no effect at 0.01 to 100 uM; for Effect on binding of [^3 H]MK-801: 0.01 to 100 uM", "protocol": "as §1, §2, §3, §4, §5"}, "[3]": {"system": "cocaine induced seizures and lethality in Swiss-Webster mice", "assay": "Effect of repeated cocaine administration on convulsive response and survival of mice pretreated with saline or NOS inhibitor", "format": "in vivo", "conditions": "for Protection against development of convulsions / Protection against lethal effects of cocaine: 60 min before cocaine 45 mg/kg/day, 7 days; for Convulsions (number of animals that seized) / Convulsions (percentage) / Survival (number of animals that survived) / Survival (percentage): saline or L-NAME (100 mg/kg) 60 min before cocaine 45 mg/kg i.p. daily", "source_text": "In the search for safer agents that may be useful in treating cocaine induced toxicity, Applicant has discovered that drugs that block the enzyme nitric oxide (NO) synthase completely abolish cocaine induced seizures and lethality in mice (see TABLE 1). NO synthase inhibitors such as N-nitro-L-arginine methyl ester (L-NAME) and N-nitro-L-arginine (NO-Arg) are known drugs used clinically for the treatment of septic shock. […] Thus, it is though that NO, a putative neurotransmitter in the brain, is involved in DA-receptor mediated neurotoxicity. Applicant's recent studies are the first to document that NOS inhibitors have protective effects against cocaine induced toxicity. FIG. 1 and FIG. 2. Briefly, Swiss-Webster mice were pretreated with either saline, L-NAME (100 mg/kg/day) or NO-Arg (25 mg/kg/day) 60 min before the administration of cocaine (45 mg/kg/day) for 7 days. The progressive increase in the adverse and toxic effects of repetitive cocaine was manifested by an increase in the convulsive and lethal responses to cocaine. Following the 7th day of saline/cocaine treatment only 60% of the animals survived, and 100% of the animals seized.\nEffect of repeated cocaine administration on convulsive\nresponse and survival of Swiss-Webster mice pretreated with\neither saline or L-NAME. Mice received a Single i.p.\ninjection of cocaine (45 mg/kg) each day 60 min after\npretreatment with either saline or L-NAME (100 mg/kg). Data\nis expressed as the total number of animals that seized\nand survived following the drugs treatment in three separate\nexperiments. Numbers in parentheses indicate percentage."}, "[4]": {"conditions": "14 nM [^3 H]CGP 39653, mouse cortical membranes, mean ± S.D. of three experiments, N.E. = no effect at 0.01 to 100 uM"}}, "note": "Several values for one entry are separate records, joined by “and”; a condition that tells them apart may be missing. Identical values can stand only once.", "data": [{"smiles": "NC(=NCCC[C@H](N)C(=O)O)N[N+](=O)[O-]", "note": "[NO-Arg, N-nitro-L-arginine]", "values": [{"measurement": "[^3 H]CGP 39653 Ki", "setting": "[1]; [4]", "value": "N.E."}, {"measurement": "Effect on binding of [^3 H]CGP 39653", "setting": "[1]", "value": "no effect"}, {"measurement": "[^3 H]MK-801 Ki", "setting": "[2]", "value": "N.E."}, {"measurement": "Effect on binding of [^3 H]MK-801", "setting": "[2]", "value": "no effect"}, {"measurement": "Protection against development of convulsions", "setting": "[3]; NO-Arg 25 mg/kg/day", "value": "completely protected"}, {"measurement": "Protection against lethal effects of cocaine", "setting": "[3]; NO-Arg 25 mg/kg/day", "value": "completely protected"}]}, {"smiles": "C[C@]12N[C@H](Cc3ccccc31)c1ccccc12", "note": "[MK-801]", "values": [{"measurement": "Ki", "setting": "[2]", "value": "3 ± 0.2", "unit": "nM"}]}, {"smiles": "NC(CCCP(=O)(O)O)C(=O)O", "note": "(stereo not drawn) [AP-5]", "values": [{"measurement": "Ki", "setting": "[1]; [4]", "value": "2230 ± 180", "unit": "nM"}]}, {"smiles": "c1ccc(C2(N3CCCCC3)CCCCC2)cc1", "note": "[PCP]", "values": [{"measurement": "Ki", "setting": "[2]", "value": "55 ± 4", "unit": "nM"}]}, {"smiles": "COC(=O)[C@H]1[C@@H](OC(=O)c2ccccc2)C[C@@H]2CC[C@H]1N2C", "note": "[cocaine]", "values": [{"measurement": "Convulsions had occurred (in words)", "setting": "[3]; by the seventh day, uniform daily doses of cocaine", "value": "in all animals"}, {"measurement": "Convulsions (number of animals that seized)", "setting": "[3]; day 1", "value": "4/36"}, {"measurement": "Convulsions (percentage)", "setting": "[3]; day 1", "value": 11, "unit": "%"}, {"measurement": "Survival (number of animals that survived)", "setting": "[3]; day 1", "value": "36/36"}, {"measurement": "Survival (percentage)", "setting": "[3]; day 1", "value": 100, "unit": "%"}, {"measurement": "Convulsions (number of animals that seized)", "setting": "[3]; day 2", "value": "14/36"}, {"measurement": "Convulsions (percentage)", "setting": "[3]; day 2", "value": 38, "unit": "%"}, {"measurement": "Survival (number of animals that survived)", "setting": "[3]; day 2", "value": "36/36"}, {"measurement": "Survival (percentage)", "setting": "[3]; day 2", "value": 100, "unit": "%"}, {"measurement": "Convulsions (number of animals that seized)", "setting": "[3]; day 3", "value": "20/36"}, {"measurement": "Convulsions (percentage)", "setting": "[3]; day 3", "value": 55, "unit": "%"}, {"measurement": "Survival (number of animals that survived)", "setting": "[3]; day 3", "value": "36/36"}, {"measurement": "Survival (percentage)", "setting": "[3]; day 3", "value": 100, "unit": "%"}, {"measurement": "Convulsions (number of animals that seized)", "setting": "[3]; day 4", "value": "22/34"}, {"measurement": "Convulsions (percentage)", "setting": "[3]; day 4", "value": 65, "unit": "%"}, {"measurement": "Survival (number of animals that survived)", "setting": "[3]; day 4", "value": "34/36"}, {"measurement": "Survival (percentage)", "setting": "[3]; day 4", "value": 94, "unit": "%"}, {"measurement": "Convulsions (number of animals that seized)", "setting": "[3]; day 5", "value": "24/33"}, {"measurement": "Convulsions (percentage)", "setting": "[3]; day 5", "value": 72, "unit": "%"}, {"measurement": "Survival (number of animals that survived)", "setting": "[3]; day 5", "value": "33/36"}, {"measurement": "Survival (percentage)", "setting": "[3]; day 5", "value": 91, "unit": "%"}, {"measurement": "Convulsions (number of animals that seized)", "setting": "[3]; day 6", "value": "26/27"}, {"measurement": "Convulsions (percentage)", "setting": "[3]; day 6", "value": 96, "unit": "%"}, {"measurement": "Survival (number of animals that survived)", "setting": "[3]; day 6", "value": "27/36"}, {"measurement": "Survival (percentage)", "setting": "[3]; day 6", "value": 75, "unit": "%"}, {"measurement": "Convulsions (number of animals that seized)", "setting": "[3]; day 7", "value": "22/22"}, {"measurement": "Convulsions (percentage)", "setting": "[3]; day 7", "value": 100, "unit": "%"}, {"measurement": "Survival (number of animals that survived)", "setting": "[3]; day 7", "value": "22/36"}, {"measurement": "Survival (percentage)", "setting": "[3]; day 7", "value": "60% and 61%"}]}, {"smiles": "COC(=O)[C@@H](N)CCCN=C(N)N[N+](=O)[O-]", "note": "[L-NAME, N-nitro-L-arginine methyl ester]", "values": [{"measurement": "[^3 H]CGP 39653 Ki", "setting": "[1]; [4]", "value": "N.E."}, {"measurement": "Effect on binding of [^3 H]CGP 39653", "setting": "[1]", "value": "no effect"}, {"measurement": "[^3 H]MK-801 Ki", "setting": "[2]", "value": "N.E."}, {"measurement": "Effect on binding of [^3 H]MK-801", "setting": "[2]", "value": "no effect"}, {"measurement": "Protection against development of convulsions", "setting": "[3]; L-NAME 100 mg/kg/day", "value": "completely protected"}, {"measurement": "Protection against lethal effects of cocaine", "setting": "[3]; L-NAME 100 mg/kg/day", "value": "completely protected"}, {"measurement": "Convulsions (number of animals that seized)", "setting": "[3]; day 1", "value": "0/30"}, {"measurement": "Convulsions (percentage)", "setting": "[3]; day 1", "value": 0, "unit": "%"}, {"measurement": "Survival (number of animals that survived)", "setting": "[3]; day 1", "value": "30/30"}, {"measurement": "Survival (percentage)", "setting": "[3]; day 1", "value": 100, "unit": "%"}, {"measurement": "Convulsions (number of animals that seized)", "setting": "[3]; day 2", "value": "1/30"}, {"measurement": "Convulsions (percentage)", "setting": "[3]; day 2", "value": 3, "unit": "%"}, {"measurement": "Survival (number of animals that survived)", "setting": "[3]; day 2", "value": "30/30"}, {"measurement": "Survival (percentage)", "setting": "[3]; day 2", "value": 100, "unit": "%"}, {"measurement": "Convulsions (number of animals that seized)", "setting": "[3]; day 3", "value": "2/30"}, {"measurement": "Convulsions (percentage)", "setting": "[3]; day 3", "value": 6, "unit": "%"}, {"measurement": "Survival (number of animals that survived)", "setting": "[3]; day 3", "value": "30/30"}, {"measurement": "Survival (percentage)", "setting": "[3]; day 3", "value": 100, "unit": "%"}, {"measurement": "Convulsions (number of animals that seized)", "setting": "[3]; day 4", "value": "0/30"}, {"measurement": "Convulsions (percentage)", "setting": "[3]; day 4", "value": 0, "unit": "%"}, {"measurement": "Survival (number of animals that survived)", "setting": "[3]; day 4", "value": "30/30"}, {"measurement": "Survival (percentage)", "setting": "[3]; day 4", "value": 100, "unit": "%"}, {"measurement": "Convulsions (number of animals that seized)", "setting": "[3]; day 5", "value": "1/30"}, {"measurement": "Convulsions (percentage)", "setting": "[3]; day 5", "value": 3, "unit": "%"}, {"measurement": "Survival (number of animals that survived)", "setting": "[3]; day 5", "value": "30/30"}, {"measurement": "Survival (percentage)", "setting": "[3]; day 5", "value": 100, "unit": "%"}, {"measurement": "Convulsions (number of animals that seized)", "setting": "[3]; day 6", "value": "1/30"}, {"measurement": "Convulsions (percentage)", "setting": "[3]; day 6", "value": 3, "unit": "%"}, {"measurement": "Survival (number of animals that survived)", "setting": "[3]; day 6", "value": "30/30"}, {"measurement": "Survival (percentage)", "setting": "[3]; day 6", "value": 100, "unit": "%"}, {"measurement": "Convulsions (number of animals that seized)", "setting": "[3]; day 7", "value": "0/30"}, {"measurement": "Convulsions (percentage)", "setting": "[3]; day 7", "value": 0, "unit": "%"}, {"measurement": "Survival (number of animals that survived)", "setting": "[3]; day 7", "value": "30/30"}, {"measurement": "Survival (percentage)", "setting": "[3]; day 7", "value": 100, "unit": "%"}]}]}
